Measurements taken from ChEMBL document CHEMBL1123962, “Chemical aspects of metoprolol metabolism. Asymmetric synthesis and absolute configuration of the 3-[4-(1-hydroxy-2-methoxyethyl)phenoxy]-1-(isopropylamino)-2-propanols , the diastereomeric benzylic hydroxylation metabolites” (J Med Chem, 1988).

Legend:
Rattus norvegicus [1] = organism: Rattus norvegicus; experiment: Stereoselectivity in presence of rat liver microsomes; assay type: functional
Rattus norvegicus [2] = organism: Rattus norvegicus; experiment: Product stereoselectivity in presence of rat liver microsomes; assay type: functional

SMILES	Activity (Rattus norvegicus [1])	Activity (Rattus norvegicus [2])
COCCc1ccc(OCC(O)CNC(C)C)cc1 (racemic)	93.2%	
COCCc1ccc(OC[C@H](O)CNC(C)C)cc1	90.4%	
COCCc1ccc(OC[C@@H](O)CNC(C)C)cc1		96.3%
